Reference: article PMC4748848, “Pharmacokinetic/Toxicity Properties of the New Anti-Staphylococcal Lead Compound SK-03-92” (Antibiotics, 2015)
≈ marks a conversion by molar mass, not a printed value. Where “and” joins values, the source holds several entries; their conditions need not be identical. Identical values can stand only once. Entries after “also recorded” stand apart in the source; their conditions may differ. Like-named read-outs stand apart in the source and are kept apart here.

Assays:
mice, rats, and humans = settings: cited from earlier work
[1] = cited from earlier work
[2] = tested on: human bladder epithelial T24; experiment: MTT cytotoxicity assay, T24; format: cell-based; settings: T-24, T24 cells
Method: (§1) Initial in vitro safety testing of SK-03-92 was performed with an MTT [3-(4,5-dimethylthiazol-2-yl)-2,5-diphenyltetrazolium bromide] assay (9, American Type Culture Collection) for several tissue culture cell lines (murine monocytic J774A.1, human monocytic U937, human kidney epithelial 293, and human bladder epithelial T24) using mitomycin C (Sigma, St. Louis, MO, USA) and DMSO alone as positive and negative controls, respectively. Assays were done a total of three times per tissue culture cell line.

human monocytic U937 = experiment: MTT cytotoxicity assay, U937; format: cell-based; settings: U-937, U937 cells
Method: as §1

[3] = tested on: human kidney epithelial 293; experiment: MTT cytotoxicity assay, 293; format: cell-based; settings: cell line printed as 292
Method: as §1

[4] = Solubility in vehicles by HPLC; format: physicochemical; settings: for solubility: HPLC
Method: An HPLC method was developed on a Halo C18 4.6 × […], 2.7 μm column (MAC-MOD Analytical Inc., Chadds Ford, PA, USA) for the detection and quantitation of SK-03-92. The method was developed using the information obtained from a scouting gradient of 5%–100% acetonitrile over 35 min. A UV spectrum of SK-03-92 was obtained from the scouting gradient and the observed maximum for SK-03-92 was 335 nm, with a local maximum of 224 nm also observed. The 335 nm maximum wavelength was used for the quantitation of SK-03-92, and the 224 nm local maximum wavelength was used to monitor for possible formation of degradation products not visible at the 335 nm wavelength. Flow rate was 0.750 mL/min and injection volume was 10 μL. The mobile phase was 62% acetonitrile (Fisher, Hanover Park, IL, USA):38% water (Milli-Q UV plus) and the isocratic program was 62% acetonitrile:38% water for 20 min. Acquisition time was 10 min and room temperature retention time was 5.4 min. Standards of SK-03-92 were prepared in acetonitrile at concentrations of 0.05–0.005 mg/mL.

[5] = tested on: several mammalian cell lines; experiment: MTT cytotoxicity, cell lines overall and therapeutic index; format: cell-based; settings: read-out: IC50 in vitro
Method: as §1

plasma proteins = experiment: Plasma protein binding assay; format: in vitro ADME, mice; settings: mouse plasma; read-out: bound to plasma proteins (converted)
Method: Plasma collected from EDTA treated blood from six SK-03-92 dosed mice was added to methyl tert-butyl ether (MTBE) to precipitate the proteins. The precipitated proteins were separated from the remainder of the plasma by centrifugation (14,000× g for 20 min) through a Microcon 10K filter (Millipore) and dried under a stream of nitrogen gas. The dried product was suspended in 62% acetonitrile/38% ddH2O and the AUC was quantified and correlated with the initial concentration of SK-03-92 present in the plasma.

[6] = tested on: S. aureus (including MRSA and VISA strains); design: method as in PMID 21739106; settings: cited from earlier work
[7] = Two-week multi-dose oral PK study; format: in vivo
Method: (§2) First, a five-day PK study with SK-03-92 orally administered to female 5-6 week old BALB/c mice was conducted. Three mice received 300 μL of blank vehicle by oral administration. Doses of 100 μg/g SK-03-92 were given orally each day in the vehicle. Blood was collected from three mice at time points 15, 30, 45, 60, 75, and 90 min after administration. Body weight was monitored every day before SK-03-92 administration. Plasma was prepared and stored at −70 °C until analyzed by HPLC. In an extension of this PK study to two-weeks following oral administration of SK-03-92, six mice were dosed in the test (SK-03-92) arm and six vehicle control mice in the other arm. Lastly, a multi-dosing PK analysis was done using two 51-μg/g doses of SK-03-92 per day (given four hours apart) over the course of three days in five mice.

murine monocytic J774A.1 = experiment: MTT cytotoxicity assay, J774A.1; format: cell-based; settings: Mus musculus, J774.A1; J774A.1 cells
Method: as §1

[8] = Five-day multi-dose oral PK study; format: in vivo; settings: female, BALB/c, mouse, plasma, mice, five-day oral 100 μg/g each day
Method: as §2

[9] = Relative bioavailability / single dose PK, oral; format: in vivo, BALB/c mice; settings: mice
Single dose PK assay, ip = format: in vivo, BALB/c mice; settings: mice
Method: An initial single dose PK experiment was performed using 100 μg/g of formulated SK-03-92 administered ip to twenty-one female, 5–6 week old BALB/c mice (7 per cohort for 3 cohorts, NCI) under parameters established previously. Three animals were used as a control group and received blank vehicle, whereas three mice per time point received 100 μg/g SK-03-92 ip and were sacrificed with blood collected at the 15, 30, 45, 60, 75, and 90 min time points by warming the tails of the mice in warm water, lancing the lateral saphenous tail vein, and collecting the blood (up to 150 μL) into microvette tubes (Sarstedt) containing EDTA or terminal bleed into vacucontainers containing EDTA as an anti-coagulant. Plasma was separated from packed blood cells by centrifugation (600× g) and stored at −70 °C until needed for HPLC analysis. Samples were analyzed with a Shimadzu Prominence HPLC system (Kyoto, Japan) with a Halo C18 column (MAC-MOD Analytical Inc., Chadds Ford, PA, USA). A mobile phase of 62% acetonitrile/38% water, isocratic program of 62% acetonitrile for 20 min, and flow rate of 0.75 mL/min with an injection volume of 10 μL and a retention time of 5.4 min were used. The standard curve for SK-03-92 was linear from 0.0098 to 2.5 μg/mL in plasma. Each chromatogram was collected and integrated to estimate the peak area of analyte by EZ Chrom® software (version.1.0, Agilent Technologies Inc., Santa Clara, CA, USA). The ratio of peak area of SK-03-92 was calculated to estimate the drug concentration(s) using a pre-built calibration curve. Major pharmacokinetic parameters were calculated using the noncompartmental analysis module of WinNonlin® (version 5.1, Pharsight Corp., Princeton, NJ, USA) under sparsely sampling mode.

[10] = Multi-dosing PK, two doses per day for three days; format: in vivo; settings: mice
Method: as §2

Swiss Webster mice = experiment: Initial safety testing in mice, escalating ip dosing (OECD); format: in vivo
Method: Three female 5–9 week old Swiss Webster mice (Harlan) per drug concentration were injected intraperitoneally (ip) with increasing concentrations of SK-03-92: 5, 50, 300, and 2000 mg/kg according to OECD [10]. The lowest concentration of drug was used first. Overt toxicity (e.g., altered gait, ungroomed, significant weight loss) was monitored.

## Oc1ccc(/C=C/c2cc(O)cc(O)c2)cc1 [resveratrol]
mice, rats, and humans; in vivo
  toxicity at high doses: non-toxic
[1]; in vivo
  half-lives in animal plasma: 15 to 60 min

## COc1cc(O)cc(/C=C/c2cc3ccccc3s2)c1 [SK-03-92, (E)-3-(2-(benzo[b]thiophen-2-yl)vinyl)-5-methoxyphenol]
[2]
  IC50: 125 mg/L (≈ 443 µM)
Human monocytic U937
  IC50: 125 mg/L (≈ 443 µM)
[3]
  IC50: 125 mg/L (≈ 443 µM)
[4]; Solutol HS 15/PBS solution
  solubility with Solutol HS 15/PBS solution: less than 10%
[4]; aqueous buffer, PBS, read-out: Solubility in PBS
  solubility: < 0.0001 mg/mL
[4]; aqueous with cosolvent or surfactant or cyclodextrin, 20% Solutol HS 15/80% PBS, read-out: Solubility in 20% Solutol HS 15/80% PBS
  solubility: 4.6 mg/mL (≈ 16300 µM)
[4]; organic solvent or mixture, PEG 400, read-out: Solubility in PEG 400
  solubility: 9.2 mg/mL (≈ 32600 µM)
[5]
  IC50: 125 mg/L (≈ 443 µM)
Plasma proteins
  fraction unbound: 0.156
[6]
  MIC50: 1 mg/L (≈ 3.54 µM)
  MIC90: 2 mg/L (≈ 7.08 µM)
[7]; BALB/c, mouse, plasma, 100 μg/g, mice, two-week oral administration, after 15 min
  concentration at 15 min: 0.144 µg/mL
[7]; BALB/c, mouse, plasma, 100 μg/g, mice, two-week oral administration, after 75 min
  concentration at 75 min: 0.01 µg/mL
[7]; multi-dose oral, after two-days
  weight loss of treated mice: about 1.5%
[7]; multi-dose oral, day 9
  weight increase of treated mice: 5.16%
[7]; multi-dose oral, day 12
  weight increase of treated mice: 9.75%
Murine monocytic J774A.1
  IC50: 125 mg/L (≈ 443 µM)
[8]; after 15 min
  concentration at 15 min: 0.086 µg/mL
[8]; after 75 min
  concentration at 75 min: 0.027 µg/mL
[9]; female, BALB/c, mouse, plasma, po, 100 μg/g, oral, single dose 100 μg/g, read-out: Half-Life
  half-life: 30 min
[9]; female, BALB/c, mouse, plasma, po, 100 μg/g, oral, single dose 100 μg/g, read-out: Tmax (converted)
  Tmax: 22 min
[9]; female, BALB/c, mouse, plasma, 100 μg/g oral, after 15 min, read-out: level detected in mouse plasma
  concentration at 15 min: 740 ng/g
[9]; female, BALB/c, mouse, plasma, 100 μg/g oral, by 30 min, read-out: level detected in mouse plasma
  concentration at 30 min: 126 ng/g
[9]; female, BALB/c, mouse, plasma, oral, single dose 100 μg/g, read-out: AUCINF_obs (converted)
  AUC(0-inf): 0.0857 µg·h/mL
[9]; female, BALB/c, mouse, po, 100 μg/g, orally administered, plasma
  Cmax: 0.37 µg/mL
[9]; 100 μg/g oral
  toxicity signs: no toxicity signs were observed
[9]; 75 min after oral gavage
  plasma concentrations: negligible levels
[9]; oral vs ip
  oral Cmax relative to Cmax of ip-administered drug: approximately 25%
[9]; oral, single dose 100 μg/g
  Cl_F_obs: 21.00 ± 6.71 mL/min/g
  Tmax: 21.43 ± 11.80 min
  Vz_F_obs: 810.67 ± 173.87 mL/g
  half-life: 30.40 ± 17.81 min
Single dose PK assay, ip; female, BALB/c, mouse, plasma, 100 μg/g, 30 min after ip injection
  concentration at 30 min: 1.64 µg/mL
Single dose PK assay, ip; female, BALB/c, mouse, plasma, 100 μg/g, within 90 min of ip injection
  concentration at 90 min: 0.149 µg/mL
Single dose PK assay, ip; female, BALB/c, mouse, plasma, intraperitoneal, oral, 100 μg/g, single dose 100 μg/g, route not given, read-out: drug half-life
  half-life: 20 to 30 min
Single dose PK assay, ip; female, BALB/c, mouse, plasma, ip, 100 μg/g, ip, single dose 100 μg/g, read-out: Half-Life
  half-life: 22 min
Single dose PK assay, ip; female, BALB/c, mouse, plasma, ip, single dose 100 μg/g
  Tmax: 30 min
Single dose PK assay, ip; female, BALB/c, mouse, plasma, ip, single dose 100 μg/g, read-out: AUCINF_obs (converted)
  AUC(0-inf): 1.17 µg·h/mL
Single dose PK assay, ip; female, BALB/c, mouse, ip, single dose 100 μg/g, plasma
  Cmax: 1.64 ± 0.59 µg/mL
Single dose PK assay, ip; after ip or oral delivery
  time to breakdown into metabolic byproducts: ≤ 15 min
Single dose PK assay, ip; ip, single dose 100 μg/g
  Cl_F_obs: 1.46 mL/min/g and 1.46 ± 0.26 mL/min/g
  Vz_F_obs: 47.71 mL/g and 47.71 ± 33.25 mL/g
  half-life: 22.46 ± 17.81 min
Single dose PK assay, ip; single dose 100 μg/g ip
  overt toxicity: no overt toxicity
Single dose PK assay, ip; single dose 100 μg/g, route not given
  time at which peak plasma concentration was achieved: 20 to 30 min
[10]; multi-dose analysis
  gross adverse effects: no gross adverse effects
[10]; two 51-μg/g doses per day four hours apart for three days
  maximum plasma concentration: 2.12 µg/mL
Swiss Webster mice; 2000 mg/kg IP single dose, two-week time frame, 2000 mg/kg
  adverse effects / overt toxicity after single dose: non-toxic; also recorded: did not exhibit gross toxicity
Swiss Webster mice; repeat dose of 2000 mg/kg a week after initial 2000 mg/kg
  overt toxicity after repeat dose: no overt toxicity was observed

## COc1cc(/C=C/c2ccc(O)cc2)cc(OC)c1 [pterostilbene]
mice, rats, and humans; mice, rats, and humans
  toxicity at high doses: non-toxic
[1]; animal plasma
  half-lives in animal plasma: 120 min
[1]; animals
  plasma concentrations: < 8 µg/mL
